From patent US20200055871A1, “ACTIVATORS OF THE RETINOIC ACID INDUCIBLE GENE "RIG-I" PATHWAY AND METHODS OF USE THEREOF” (Kineta Immuno-Oncology LLC, priority 2018, published 2020)

Assays:
[1] = system: IRF3 signaling pathway in THP1-Lucia™ ISG cells; assay: THP1-Lucia ISG reporter assay: induction of IRF3-dependent gene expression (secreted luciferase); type: cell-based, human; details: Homo sapiens, THP1-Lucia ISG, PMA-differentiated cells, 18 h after stimulation, read-out: fold increase of IRF3-dependent luciferase activity over background, THP1 ISG; for fold induction at 10 µM: 10 μM compound
Method: The compounds were evaluated in the THP1-Lucia™ ISG (interferon stimulated genes) reporter assay to determine if the compounds activate the IRF3 signaling pathway. The THP1-Lucia™ cells (InvivoGen) express the secreted luciferase (Lucia) reporter gene under the control of an IRF-inducible promoter. The reporter cell line was developed from human monocytic leukemia THP-1 cells.
The promoter was comprised of five IFN-stimulated response elements (ISRE) fused to an ISG54 minimal promoter which is unresponsive to NF-kB or AP-1 pathways. […] The IRF3-deficient THP1-Lucia™ ISG IRF3−/−reporter cell line was generated by CRISPR technology from the parent THP1-Lucia™ ISG reporter cell line.
THP1-Lucia™ ISG cells and IRF3-deficient THP1-Lucia™ ISG IRF3−/−cells were differentiated with PMA (100 ng/ml) and stimulated with compounds at the indicated concentrations (5 to 20 μM), positive control, or not treated (background). Luciferase secretion was quantified using the QUANTI-Luc luciferase assay system (InvivoGen) 18 h after stimulation. Data are shown as fold increase luciferase activity over background in Table 7 and represent the IRF3-dependent ISG54 promoter activity by the THP1-Lucia™ ISG cells in response to compounds. […] The fold increase of compounds (10 μM, *20 μM, **5 μM) induced IRF3 dependent luciferase activity is indicated as follows: “≠” indicates less than 2.4 fold increase; “+” indicates a 2.4-4.9 fold increase; “++” indicates a 5-9.9 fold increase; “+++” indicates a 10-19 fold increase; “++++” indicates a 20-39 fold increase; “+++++” indicates greater than or equal to 40 fold increase.

[2] = system: murine CT26 colon carcinoma cells; assay: RIG-I dependent CXCL10 secretion by CT26 cells (ELISA); type: cell-based; details: supernatant 24 h after stimulation
Method: (§1) The CT26 murine colon carcinoma cell line (ATCC) was used to evaluate the induction of CXCL10 secretion. CXCL10 is an important chemokine in tumor immune biology that recruits tumor-specific T cells to the tumor. To confirm that compound-mediated CXCL10 production was RIG-I specific, RIG-1 deficient CT2-RIG-I−/−cells were generated by Kineta Inc. using CRISPR technology.
(§2) CT26 cells were seeded at a density of 1×10^4 cells per well on a 96-well tissue culture plate in 100 μL of cell culture and cells were incubated at 37° C. and 5% CO2 for 24 hr. Next, CT26 cells were treated with compounds at the indicated concentrations. CXCL10 was quantified by ELISA from supernatants taken 24 h after compound stimulation by use of the CXCL10 Duo Set ELISA kit (Cat #DY466, R&D, Minneapolis, Minn., USA) according to the manufacturer's instructions.
(§3) CXCL10 secretion by CT26 cells in response to compounds (in an amount of 5 to 20 μM) of the present disclosure is shown in Table 8. The compound-induced CXCL10 production was RIG-I dependent, since none of the compounds mediated CXCL10 secretion in RIG-I deficient CT26 RIG-I−/−cells (about 0 pg/mL of CXCL10, or below the level of quantitation). The compounds (10 μM, *20 μM, **5 μM) are indicated in the table as follows: “≠” indicates less than 100 pg/mL; “+” indicates 100-199 pg/mL; “++” indicates 200-399 pg/mL; “+++” indicates 400-799 pg/mL; “++++” indicates 800 to 1599 pg/mL; “+++++” indicates greater than or equal to 1600 pg/ml.

[3] = system: RIG-I deficient CT26 RIG-I−/− cells; assay: CXCL10 secretion by RIG-I deficient CT26 RIG-I−/− cells (ELISA); type: cell-based, murine; details: compound 5 to 20 μM, 24 h
Method: as §1, §2, §3

| SMILES | fold induction at 10 µM [1] | CXCL10 secretion, CT26 ([2]; 10 μM compound) | CXCL10 secretion, CT26 RIG-I−/− [3] | CXCL10 secretion, CT26 ([2]; 20 μM compound (*)) | CXCL10 secretion, CT26 ([2]; 5 μM compound (**)) | fold induction at 5 µM ([1]; 5 μM compound (**)) |
| --- | --- | --- | --- | --- | --- | --- |
| COc1nc2c(ccc3nc(NC(=O)c4cc5ccccc5cc4OCCCN4CCOCC4)sc32)s1 [Example 31, N-{11-methoxy-3,10-dithia-5,12-diazatricyclo[7.3.0.0^2,^6]dodeca-1,4,6,8,11-pentaen-4-yl}-3-[3-(morpholin-4-yl)propoxy]naphthalene-2-carboxamide] | 5 to 9.9 | ++ (200-399 pg/mL) | − |  |  |  |
| O=C(Nc1nc2ccc3scnc3c2s1)c1cc2ccccc2cc1OCCCCN1CCOCC1 [Example 28, N-{3,10-dithia-5,12-diazatricyclo[7.3.0.0^2,^6]dodeca-1,4,6,8,11-pentaen-4-yl}-3-[4-(morpholin-4-yl)butoxy]naphthalene-2-carboxamide] | 2.4 to 4.9 | ++ (200-399 pg/mL) | − |  |  |  |
| Cn1c(C(=O)Nc2nc3ccc4scnc4c3s2)cc2ccccc21 [Example 17, N-{3,10-dithia-5,12-diazatricyclo[7.3.0.0^2,^6]dodeca-1,4,6,8,11-pentaen-4-yl}-1-methyl-1H-indole-2-carboxamide] | 10 to 19 | ++ (200-399 pg/mL) | − |  |  |  |
| O=C(Nc1nc2ccc3scnc3c2s1)c1ccc2nsnc2c1 [Example 12, N-{3,10-dithia-5,12-diazatricyclo[7.3.0.0^2,^6]dodeca-1,4,6,8,11-pentaen-4-yl}-2,1,3-benzothiadiazole-5-carboxamide] | 5 to 9.9 | ++++ (800 to 1599 pg/mL) | − |  |  |  |
| O=C(Nc1nc2ccc3scnc3c2s1)c1ccc2sccc2c1 [Example 14, N-{3,10-dithia-5,12-diazatricyclo[7.3.0.0^2,^6]dodeca-1,4,6,8,11-pentaen-4-yl}-1-benzothiophene-5-carboxamide] | 10 to 19 |  | − | ++* (200-399 pg/mL) |  |  |
| O=C(Nc1nc2ccc3scnc3c2s1)c1cc2ccccc2s1 [Example 11, N-{3,10-dithia-5,12-diazatricyclo[7.3.0.0^2,^6]dodeca-1,4,6,8,11-pentaen-4-yl}-1-benzothiophene-2-carboxamide] | 2.4 to 4.9 | ++ (200-399 pg/mL) | − |  |  |  |
| CSc1nc2c(ccc3nc(NC(=O)c4cc5ccccc5cc4OCCN4CCOCC4)sc32)s1 [Example 35, N-[11-(methylsulfanyl)-3,10-dithia-5,12-diazatricyclo[7.3.0.0^2,^6]dodeca-1,4,6,8,11-pentaen-4-yl]-3-[2-(morpholin-4-yl)ethoxy]naphthalene-2-carboxamide] | 5 to 9.9 |  | − | ++* (200-399 pg/mL) |  |  |
| Cc1nc2c(ccc3nc(NC(=O)c4ccc(N(C)C)cc4)sc32)s1 [Example 6, 4-(dimethylamino)-N-{11-methyl-3,10-dithia-5,12-diazatricyclo[7.3.0.0^2,^6]dodeca-1,4,6,8,11-pentaen-4-yl}benzamide] | 10 to 19 | ++ (200-399 pg/mL) | − |  |  |  |
| O=C(Nc1nc2ccc3scnc3c2s1)c1cc2c(cc1OCCN1CCOCC1)OCO2 [Example 40, N-{3,10-dithia-5,12-diazatricyclo[7.3.0.0^2,^6]dodeca-1,4,6,8,11-pentaen-4-yl}-6-[2-(morpholin-4-yl)ethoxy]-2H-1,3-benzodioxole-5-carboxamide] | 20 to 39 | ≠ (less than 100 pg/mL) | − |  |  |  |
| CCCCCOc1ccc(C(=O)Nc2nc3ccc4sc(C)nc4c3s2)cc1 [Example 5, N-{11-methyl-3,10-dithia-5,12-diazatricyclo[7.3.0.0^2,^6]dodeca-1,4,6,8,11-pentaen-4-yl}-4-(pentyloxy)benzamide] | 5 to 9.9 |  | − | +* (100-199 pg/mL) |  |  |
| O=C(Nc1nc2ccc3scnc3c2s1)c1cc2ccccc2cc1OCCN1CCCCC1 [Example 25, N-{3,10-dithia-5,12-diazatricyclo[7.3.0.0^2,^6]dodeca-1,4,6,8,11-pentaen-4-yl}-3-[2-(piperidin-1-yl)ethoxy]naphthalene-2-carboxamide] | 2.4 to 4.9 | ++ (200-399 pg/mL) | − |  |  |  |
| O=C(Nc1nc2ccc3scnc3c2s1)c1cc2ccccc2cc1OCCN1CC2(COC2)C1 [Example 34, N-{3,10-dithia-5,12-diazatricyclo[7.3.0.0^2,^6]dodeca-1,4,6,8,11-pentaen-4-yl}-3-(2-{2-oxa-6-azaspiro[3.3]heptan-6-yl}ethoxy)naphthalene-2-carboxamide] | 2.4 to 4.9 |  | − |  | +++** (400-799 pg/mL) |  |
| O=C(Nc1nc2ccc3scnc3c2s1)c1cc2ccccc2cc1OCCN1CCNCC1 [Example 47, N-{3,10-Dithia-5,12-diazatricyclo[7.3.0.0^2,6]dodeca-1,4,6,8,11-pentaen-4-yl}-3-[2-(piperazin-1-yl)ethoxy]naphthalene-2-carboxamide] | 2.4 to 4.9 | + (100-199 pg/mL) | − |  |  |  |
| O=C(Nc1nc2ccc3scnc3c2s1)c1cc2c(cc1OCCCCN1CCOCC1)OCO2 [Example 41, N-{3,10-dithia-5,12-diazatricyclo[7.3.0.0^2,^6]dodeca-1,4,6,8,11-pentaen-4-yl}-6-[4-(morpholin-4-yl)butoxy]-2H-1,3-benzodioxole-5-carboxamide] | 2.4 to 4.9 | + (100-199 pg/mL) | − |  |  |  |
| O=C(Nc1nc2ccc3scnc3c2s1)c1ccc(-c2ccccc2)cc1 [Example 21, N-{3,10-dithia-5,12-diazatricyclo[7.3.0.0^2,^6]dodeca-1,4,6,8,11-pentaen-4-yl}-[1,1′-biphenyl]-4-carboxamide] | 10 to 19 | + (100-199 pg/mL) | − |  |  |  |
| O=C(Nc1nc2ccc3scnc3c2s1)c1cc2ccccc2cc1OCCNCCO [Example 46, N-{3,10-dithia-5,12-diazatricyclo[7.3.0.0^2,^6]dodeca-1,4,6,8,11-pentaen-4-yl}-3-{2-[(2-hydroxyethyl)amino]ethoxy}naphthalene-2-carboxamide] |  | +++ (400-799 pg/mL) | − |  |  | 2.4 to 4.9 |
| CSc1nc2c(ccc3nc(NC(=O)c4ccc5ccccc5c4)sc32)s1 [Example 19, N-[11-(methylsulfanyl)-3,10-dithia-5,12-diazatricyclo[7.3.0.0^2,^6]dodeca-1,4,6,8,11-pentaen-4-yl]naphthalene-2-carboxamide] | 10 to 19 |  | − | +++* (400-799 pg/mL) |  |  |
| Cn1c(C(=O)Nc2cc3ccc4scnc4c3s2)cc2ccccc21 [Example 71, N-{5,12-dithia-3-azatricyclo[7.3.0.0^2,^6]dodeca-1,3,6,8,10-pentaen-11-yl}-1-methyl-1H-indole-2-carboxamide] |  | + (100-199 pg/mL) |  |  |  |  |
